Results as given in PMC12498190, “A Photocaged N‐Phosphonopiperidinone as a Selective Photo‐Cleavable DPP8/9 Inhibitor” (Chembiochem, 2025).

Target: T1, human DPP4 (Homo sapiens, UniProt P27487)
T1 construct: purchased Proteros Biostructures GmbH, Germany
Assay: DPP4 enzyme inhibition assay, AMC release from GP-AMC
Assay type: biochemical
Source text: We then continued to investigate the biochemical properties of the photocaged compound 5 versus the photoreleased product resembling inhibitor 1. To this end, we performed biochemical enzyme inhibition assays with DPP8 and DPP9 before and after irradiation of 5. Resulting DPP8/9 inhibition was quantified by following the DPP8‐ or DPP9‐mediated proteolysis of the fluorophore 7‐amino‐4‐methylcoumarin (AMC) from the model substrate Gly‐Pro‐AMC (Figure 1C,D and Table 1 ). To induce photocleavage of 5, reaction mixtures were irradiated for 5 min with the same green LED lamp as before, followed by a pre‐incubation of 45 min with the photoreleased inhibitor prior to substrate addition.
Enzyme activity of human DPP4, DPP8, and DPP9 (Proteros Biostructures GmbH, Germany) was determined by measuring the initial velocity of AMC release from the fluorogenic substrate GP‐AMC (Sigma Aldrich, USA) using a Tecan Spark 10 M multimode microplate reader (Tecan Group Ltd., Switzerland) in activity buffer (20 mM HEPES/KOH pH 7.3, 110 mM potassium acetate, 2 mM magnesium acetate, 0.5 mM EGTA, 0.02% Tween 20, supplemented with 1 mM DTT) and a final volume of 20 μL for maximal 30 min at 30 °C. Prior to the activity measurement, 10 nM of the corresponding enzyme was incubated for 45 min at 30 °C and gentle shaking with the indicated compounds at concentrations ranging from 0 to 100 μM, followed by irradiation with a green LED lamp (λ = 520−530 nm; Eurolite, Germany) for 5 min. The corresponding compounds were dissolved in DMSO and diluted in activity buffer (final DMSO concentration: 1%). To the inhibitor–enzyme mixture, GP‐AMC was then added to a final concentration of 250 μM, and the activity measurement was started. The resulting enzyme activity was calculated from the slope (fluorescence release over time) and plotted against the concentrations of the inhibitor. Apparent IC50 values were calculated using Graph‐Pad Prism v10.4.1 using the equation: [Inhibitor] versus response‐Variable slope (four parameters). […]

T1 sequence (P27487 whole entry): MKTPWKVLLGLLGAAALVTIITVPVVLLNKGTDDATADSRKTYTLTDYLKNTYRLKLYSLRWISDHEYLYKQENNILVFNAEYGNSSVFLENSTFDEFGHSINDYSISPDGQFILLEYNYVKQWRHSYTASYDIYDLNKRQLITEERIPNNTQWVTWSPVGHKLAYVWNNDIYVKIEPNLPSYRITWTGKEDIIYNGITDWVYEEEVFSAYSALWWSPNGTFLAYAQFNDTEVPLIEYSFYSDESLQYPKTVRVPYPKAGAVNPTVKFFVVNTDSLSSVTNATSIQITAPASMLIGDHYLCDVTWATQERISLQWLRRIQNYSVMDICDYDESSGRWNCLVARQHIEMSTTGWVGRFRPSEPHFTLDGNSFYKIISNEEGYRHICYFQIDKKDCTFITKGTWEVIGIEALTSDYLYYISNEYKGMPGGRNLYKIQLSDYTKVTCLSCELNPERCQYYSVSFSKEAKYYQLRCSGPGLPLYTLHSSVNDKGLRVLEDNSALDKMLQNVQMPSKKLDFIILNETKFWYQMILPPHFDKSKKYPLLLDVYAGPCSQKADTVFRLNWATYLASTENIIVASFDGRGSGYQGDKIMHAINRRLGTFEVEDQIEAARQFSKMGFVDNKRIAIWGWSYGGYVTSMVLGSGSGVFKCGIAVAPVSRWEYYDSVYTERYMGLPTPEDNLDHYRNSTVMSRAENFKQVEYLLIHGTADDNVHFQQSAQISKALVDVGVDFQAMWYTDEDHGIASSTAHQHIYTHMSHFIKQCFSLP

CCCCCc1ccc(SCCP(=O)(OCC)N2CCC[C@H](NC(=O)OCC3=C4C(C)=CC(C)=[N+]4[B-](C)(C)n4c(C)cc(C)c43)C2=O)cc1 (stereo partly drawn) [Compound 5]
IC50 (DPP4, dark (without green light irradiation), 45 min pre-incubation, read-out: Apparent IC50): > 100 µM | DPP4 inhibition (in words) (irradiated): not inhibited | DPP4 inhibition (in words) (non-irradiated): not inhibited
